From patent US11396502B2, “Substituted heterocyclic derivatives as PI3K inhibitors” (Incyte Corporation, priority 2018, dated 2022) come the findings set out here.

Structures are written as SMILES. Structures can show the parent of a compound that is named as a salt. Where two headings read alike, the source gives them in different places.

The subject of test [1] is Phosphorylated Ribosomal Protein S6 (RPS6) in THP-1 cells. The experiment in a line: THP-1 RPS6 ELISA assay. The note with it: 2 hours compound, 10 nM MCP-1 for 15 minutes, Phospho-RPS6 ELISA, read-out: PI3Kγ_THP1_RPS6_ELISA IC50. It counts as cell-based, Human. As for the experimental part:
Example A. THP-1 RPS6 ELISA Assay
To measure the Phosphorylated Ribosomal Protein S6 (RPS6) in cell lysates, THP-1 cells (Human Acute Monocytic Leukemia) are purchased from ATCC (Manassas, Va.) and maintained in RPMI with 10% FBS (Gibco/Life Technologies, Carlsbad, Calif.). For the assay, THP-1 cells are serum starved overnight in RPMI, then plated in RPMI (2×10^5 cells/well in 90 μL) into 96-well flat-bottom tissue culture treated plates (Corning, Corning, N.Y.), in the presence or absence of a concentration range of test compounds. Covered plates are incubated for 2 hours at 37° C., 5% CO2 then treated with or without 10 nM MCP-1 (MYBioSource, San Diego, Calif.) for 15 minutes at 37° C., 5% CO2. Plates are centrifuged at 1600 RPM and supernatants are removed. Cells are lysed in Lysis Buffer (Cell Signaling, Danvers, Mass.) with Protease Inhibitor (Calbiochem/EMD, Germany), PMSF (Sigma, St Louis Mo.), HALTS (Thermo Fisher, Rockford, Ill.) for 30 min on wet ice. Cell lysates are frozen at −80° C. before testing. The lysates are tested in the Human/Mouse/Rat Phospho-RPS6 ELISA (R&D Systems, Inc. Minn, Minn.). The plate is measured using a microplate reader (SpectraMax M5—Molecular Devices, LLC Sunnyvale, Calif.) set to 450 nm with a wavelength correction of 540. IC50 determination is performed by fitting the curve of inhibitor percent inhibition versus the log of the inhibitor concentration using the GraphPad Prism 5.0 software.
On the technique in general: An ELISA detects its analyte on a solid surface through an enzyme-linked reagent.

A further test concerns the target PI3Kγ (p110γ) (Homo sapiens (Human), UniProt P48736). Description: PI3K-γ scintillation proximity assay. It counts as biochemical. The following applies: recombinant human PI3Kγ 13 nM, 20 μM PIP2, 2 μM ATP, 120 min, room temperature. The text has this: Example B. PI3K-γ Scintillation Proximity Assay Materials: [γ-^33P]ATP (10 mCi/mL) and Wheat Germ Agglutinin (WGA) YSi SPA Scintillation Beads was purchased from Perkin Elmer (Waltham, Mass.). Lipid kinase substrate, D-myo-Phosphatidylinositol 4,5-bisphosphate (PtdIns(4,5)P2)D (+)-sn-1,2-di-O-octanoylglyceryl, 3-O-phospho linked (PIP2), CAS 204858-53-7, was purchased from Echelon Biosciences (Salt Lake City, Utah). PI3Kγ (p110γ) Recombinant Human Protein was purchased from Life technology (Grand Island, N.Y.). ATP, MgCl2, DTT, EDTA, MOPS and CHAPS were purchased from Sigma Aldrich (St. Louis, Mo.). The kinase reaction was conducted in polystyrene 384-well Greiner Bio-one white plate from Thermo Fisher Scientific in a final volume of 25 μL. Inhibitors were first diluted serially in DMSO and added to the plate wells before the addition of other reaction components. The final concentration of DMSO in the assay was 2%. The PI3Kγ assay was carried out at room temperature in 20 mM MOPS, pH 6.7, 10 mM MgCl2, 5 mM DTT and CHAPS 0.03%. Reactions were initiated by the addition of ATP, the final reaction mixture consisted of 20 μM PIP2, 2 μM ATP, 0.5 μCi [γ-^33P] ATP, 13 nM PI3Kγ. Reactions were incubated for 120 min and terminated by the addition of 40 μL SPA beads suspended in quench buffer: 163 mM potassium phosphate pH 7.8, 20% glycerol, 25 mM EDTA. The final concentration of SPA beads is 1.0 mg/mL. After the plate sealing, plates were shaken overnight at room temperature and centrifuged at 1500 rpm for 10 min, the radioactivity of the product was determined by scintillation counting on Topcount (Perkin-Elmer). IC50 determination was performed by fitting the curve of percent of the solvent control activity versus the log of the inhibitor concentration using the GraphPad Prism 6.0 software.

In a further test the target is PI3Kδ (p110δ/p85α) (Homo sapiens (Human), UniProt O00329). The experiment in a line: PI3Kδ scintillation proximity assay. Type of test: biochemical. The note with it: recombinant human PI3Kδ 3.4 nM, 20 μM PIP2, 2 μM ATP, 120 min, room temperature. From the text:
Example C. PI3Kδ Scintillation Proximity Assay Materials: [γ-^33P]ATP (10 mCi/mL) and Wheat Germ Agglutinin (WGA) YSi SPA Scintillation Beads was purchased from Perkin Elmer (Waltham, Mass.). Lipid kinase substrate, D-myo-Phosphatidylinositol 4,5-bisphosphate (PtdIns(4,5)P2)D (+)-sn-1,2-di-O-octanoylglyceryl, 3-O-phospho linked (PIP2), CAS 204858-53-7, was purchased from Echelon Biosciences (Salt Lake City, Utah). PI3Kδ (p110δ/p85α) Recombinant Human Protein was purchased from Eurofins (St Charles, Mo.). ATP, MgCl2, DTT, EDTA, MOPS and CHAPS were purchased from Sigma Aldrich (St. Louis, Mo.). The kinase reaction was conducted in polystyrene 384-well Greiner Bio-one white plate from Thermo Fisher Scientific in a final volume of 25 μL. Inhibitors were first diluted serially in DMSO and added to the plate wells before the addition of other reaction components. The final concentration of DMSO in the assay was 2%. The PI3Kδ assay was carried out at room temperature in 20 mM MOPS, pH 6.7, 10 mM MgCl2, 5 mM DTT and CHAPS 0.03%. Reactions were initiated by the addition of ATP, the final reaction mixture consisted of 20 μM PIP2, 2 μM ATP, 0.5 μCi [γ-^33P] ATP, 3.4 nM PI3Kδ. Reactions were incubated for 120 min and terminated by the addition of 40 μL SPA beads suspended in quench buffer: 163 mM potassium phosphate pH 7.8, 20% glycerol, 25 mM EDTA. The final concentration of SPA beads is 1.0 mg/mL. After the plate sealing, plates were shaken overnight at room temperature and centrifuged at 1500 rpm for 10 min, the radioactivity of the product was determined by scintillation counting on Topcount (PerkinElmer). IC50 determination was performed by fitting the curve of percent of the solvent control activity versus the log of the inhibitor concentration using the GraphPad Prism 6.0 software.
In general terms: In a scintillation proximity assay essentially only radioactivity close to the scintillant gives light.

[2] abbreviates: Homo sapiens, THP-1, serum starved THP-1 cells.

Sequence of PI3Kδ (p110δ/p85α) (O00329 whole entry): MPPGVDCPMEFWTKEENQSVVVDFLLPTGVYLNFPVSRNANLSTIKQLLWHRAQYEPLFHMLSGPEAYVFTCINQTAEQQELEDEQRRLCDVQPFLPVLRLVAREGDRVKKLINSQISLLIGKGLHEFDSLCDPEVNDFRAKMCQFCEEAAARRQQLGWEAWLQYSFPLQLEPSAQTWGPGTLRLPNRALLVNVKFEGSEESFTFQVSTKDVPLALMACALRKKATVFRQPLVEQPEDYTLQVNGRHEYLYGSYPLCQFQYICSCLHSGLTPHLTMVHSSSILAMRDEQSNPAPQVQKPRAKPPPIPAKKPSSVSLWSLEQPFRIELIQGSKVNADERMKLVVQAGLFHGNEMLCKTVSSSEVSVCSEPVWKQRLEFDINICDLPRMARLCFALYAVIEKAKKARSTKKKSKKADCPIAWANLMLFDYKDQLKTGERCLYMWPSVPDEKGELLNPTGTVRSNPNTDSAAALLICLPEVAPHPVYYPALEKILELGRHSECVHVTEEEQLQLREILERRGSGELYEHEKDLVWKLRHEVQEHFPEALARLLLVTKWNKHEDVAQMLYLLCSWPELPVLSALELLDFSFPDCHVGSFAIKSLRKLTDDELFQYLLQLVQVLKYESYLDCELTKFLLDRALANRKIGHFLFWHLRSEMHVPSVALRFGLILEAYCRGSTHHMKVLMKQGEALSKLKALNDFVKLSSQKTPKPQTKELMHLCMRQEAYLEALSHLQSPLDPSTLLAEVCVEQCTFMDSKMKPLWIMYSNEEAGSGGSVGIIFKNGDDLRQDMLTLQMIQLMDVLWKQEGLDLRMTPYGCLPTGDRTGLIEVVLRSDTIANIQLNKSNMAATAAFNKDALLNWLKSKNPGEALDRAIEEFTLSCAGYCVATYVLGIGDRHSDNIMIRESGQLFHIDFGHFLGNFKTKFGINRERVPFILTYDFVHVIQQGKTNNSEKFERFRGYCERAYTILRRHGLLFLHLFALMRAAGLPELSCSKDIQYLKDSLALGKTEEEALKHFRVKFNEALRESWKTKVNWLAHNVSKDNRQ
Sequence of PI3Kδ (p110δ/p85α) (P27986 whole entry partner): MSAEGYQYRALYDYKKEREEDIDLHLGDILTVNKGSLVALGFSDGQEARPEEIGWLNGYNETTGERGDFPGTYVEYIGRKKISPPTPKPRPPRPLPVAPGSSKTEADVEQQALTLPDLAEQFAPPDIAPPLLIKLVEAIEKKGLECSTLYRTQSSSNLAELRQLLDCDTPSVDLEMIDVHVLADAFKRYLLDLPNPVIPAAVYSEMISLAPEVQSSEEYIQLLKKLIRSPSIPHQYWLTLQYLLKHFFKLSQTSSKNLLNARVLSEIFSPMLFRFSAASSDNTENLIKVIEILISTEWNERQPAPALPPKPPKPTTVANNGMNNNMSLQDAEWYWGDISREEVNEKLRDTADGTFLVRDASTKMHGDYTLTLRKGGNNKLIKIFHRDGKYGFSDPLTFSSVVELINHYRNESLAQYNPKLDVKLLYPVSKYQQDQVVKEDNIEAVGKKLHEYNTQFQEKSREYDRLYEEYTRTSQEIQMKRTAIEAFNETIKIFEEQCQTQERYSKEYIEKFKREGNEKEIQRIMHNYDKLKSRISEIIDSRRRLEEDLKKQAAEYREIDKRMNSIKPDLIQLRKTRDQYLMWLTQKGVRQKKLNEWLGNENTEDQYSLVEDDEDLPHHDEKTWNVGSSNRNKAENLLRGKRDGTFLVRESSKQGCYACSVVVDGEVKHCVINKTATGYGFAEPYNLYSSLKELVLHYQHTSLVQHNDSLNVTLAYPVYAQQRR
Sequence of PI3Kγ (p110γ) (P48736 whole entry): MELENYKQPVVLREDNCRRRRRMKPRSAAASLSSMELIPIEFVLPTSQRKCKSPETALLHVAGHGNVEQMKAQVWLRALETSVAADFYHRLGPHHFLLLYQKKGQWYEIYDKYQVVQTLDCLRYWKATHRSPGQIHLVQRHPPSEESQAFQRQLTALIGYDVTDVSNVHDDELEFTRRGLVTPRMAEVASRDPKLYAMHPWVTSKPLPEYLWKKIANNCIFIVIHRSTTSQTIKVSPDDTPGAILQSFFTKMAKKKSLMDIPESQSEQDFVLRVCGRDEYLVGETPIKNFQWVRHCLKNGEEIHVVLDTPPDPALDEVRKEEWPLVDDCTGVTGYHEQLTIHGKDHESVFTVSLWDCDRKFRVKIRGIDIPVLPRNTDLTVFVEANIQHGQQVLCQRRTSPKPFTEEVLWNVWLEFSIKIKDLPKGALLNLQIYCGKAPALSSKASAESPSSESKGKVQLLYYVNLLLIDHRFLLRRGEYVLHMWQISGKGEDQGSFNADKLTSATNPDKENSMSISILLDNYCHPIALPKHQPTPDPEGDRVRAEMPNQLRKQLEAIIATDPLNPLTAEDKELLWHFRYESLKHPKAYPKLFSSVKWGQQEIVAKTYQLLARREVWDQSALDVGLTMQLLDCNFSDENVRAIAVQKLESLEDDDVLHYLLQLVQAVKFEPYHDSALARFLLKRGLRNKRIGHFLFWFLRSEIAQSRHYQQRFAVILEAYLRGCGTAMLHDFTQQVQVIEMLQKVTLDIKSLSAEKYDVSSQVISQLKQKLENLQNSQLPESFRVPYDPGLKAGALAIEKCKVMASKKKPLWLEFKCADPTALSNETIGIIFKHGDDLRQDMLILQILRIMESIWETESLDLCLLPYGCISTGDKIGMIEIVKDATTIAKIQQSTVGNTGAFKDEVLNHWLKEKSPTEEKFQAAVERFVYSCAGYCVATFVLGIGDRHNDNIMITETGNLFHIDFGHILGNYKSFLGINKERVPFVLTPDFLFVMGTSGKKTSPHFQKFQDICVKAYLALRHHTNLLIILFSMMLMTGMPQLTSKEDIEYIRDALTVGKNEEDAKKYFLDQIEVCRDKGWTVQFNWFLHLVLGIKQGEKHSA

The IC50 is the midpoint of a concentration-inhibition curve. Turning to `Cc1[nH]c(-c2cc(-c3cc4c(c(S(C)(=O)=O)c3)C(=O)N([C@@H](C)C3CC3)C4)ccn2)nc1C(=O)NC1CC(O)C1` (mixture of isomers) [Example 7f, (S)-2-(4-(2-(1-Cyclopropylethyl)-7-(methylsulfonyl)-1-oxoisoindolin-5-yl)pyridin-2-yl)-N-(3-hydroxycyclobutyl)-4-methyl-1H-imidazole-5-carboxamide, trifluoroacetate salt (mixture of two diastereomers)], the results for the IC50 (in test [1] (setting [2]); on PI3Kγ (p110γ); on PI3Kδ (p110δ/p85α)) were greater than 1000 nM, less than 100 nM and 100 to 500 nM, respectively.
Regarding `Cc1[nH]c(-c2cc(-c3cc4c(c(S(C)(=O)=O)c3)C(=O)N([C@@H](C)C3CC3)C4)ccn2)nc1C(=O)NC1CCOC1` (mixture of isomers) [Example 7n, 2-(4-(2-((S)-1-Cyclopropylethyl)-7-(methylsulfonyl)-1-oxoisoindolin-5-yl)pyridin-2-yl)-4-methyl-N-(tetrahydrofuran-3-yl)-1H-imidazole-5-carboxamide, trifluoroacetate salt (mixture of two diastereomers)], the IC50 in test [1] (setting [2]) was 100 to 500 nM; on PI3Kγ (p110γ) it was less than 100 nM; on PI3Kδ (p110δ/p85α), 100 to 500 nM.
As to `Cc1nc(-c2cc(-c3cc4c(c(S(C)(=O)=O)c3)C(=O)N([C@@H](C)C3CC3)C4)ccn2)[nH]c1C(=O)NC(C)C(F)(F)F` (single isomer, unassigned) [Example 7g], the figures for the IC50 (in test [1] (serum starved THP-1 cells); at PI3Kγ (p110γ); on PI3Kδ (p110δ/p85α)) were greater than 1000 nM, less than 100 nM and 100 to 500 nM, respectively.
As to `CCC(C)NC(=O)c1[nH]c(-c2cc(-c3cc4c(c(S(C)(=O)=O)c3)C(=O)N([C@@H](C)C3CC3)C4)ccn2)nc1C` (single isomer, unassigned) [Example 7l], the IC50 is 100 to 500 nM in test [1] (serum starved THP-1 cells), less than 100 nM on PI3Kγ (p110γ) and 100 to 500 nM on PI3Kδ (p110δ/p85α).
`Cc1nc(-c2cc(-c3cc4c(c(S(C)(=N)=O)c3)C(=O)N([C@@H](C)C3CC3)C4)ccn2)[nH]c1C` (single isomer, unassigned) [Example 22]: the IC50 in test [1] (setting [2]) was 500 to 1000 nM; at PI3Kγ (p110γ), less than 100 nM; at PI3Kδ (p110δ/p85α), 500 to 2000 nM.
`CN=S(C)(=O)c1cc(-c2ccnc(-c3nc(C)c(C)[nH]3)c2)cc2c1C(=O)N([C@@H](C)C1CC1)C2` (single isomer, unassigned) [Example 25]: the IC50 in test [1] (setting [2]) is 500 to 1000 nM; on PI3Kγ (p110γ) it was less than 100 nM; on PI3Kδ (p110δ/p85α), 500 to 2000 nM.
`Cc1cnc(-c2cc(-c3cc4c(c(N=S(C)(C)=O)c3)C(=O)N([C@@H](C)C3CC3)C4)ccn2)[nH]1` (single isomer, unassigned) [Example 26]: the IC50 in test [1] (setting [2]) is greater than 1000 nM; at PI3Kγ (p110γ) it was less than 100 nM; at PI3Kδ (p110δ/p85α), greater than 2000 nM.
Take `Cc1nc(-c2cc(-c3cc(Cl)c4c(c3)CN([C@@H](C)C3CC3)C4=O)ccn2)[nH]c1C` [Example 1, (S)-7-Chloro-2-(1-cyclopropylethyl)-5-(2-(4,5-dimethyl-1H-imidazol-2-yl)pyridin-4-yl)isoindolin-1-one]: the IC50 in test [1] (setting [2]) was 500 to 1000 nM; on PI3Kγ (p110γ), less than 100 nM; at PI3Kδ (p110δ/p85α), 100 to 500 nM.
As to `Cc1nc(-c2cc(-c3cc4c(c(S(C)(=O)=O)c3)C(=O)N([C@@H](C)C3CC3)C4)ccn2)[nH]c1C` [Example 2, (S)-2-(1-Cyclopropylethyl)-5-(2-(4,5-dimethyl-1H-imidazol-2-yl)pyridin-4-yl)-7-(methylsulfonyl)isoindolin-1-one Trifluoroacetate Salt], the IC50 in test [1] (setting [2]) is 500 to 1000 nM; on PI3Kγ (p110γ) it was less than 100 nM; on PI3Kδ (p110δ/p85α), 100 to 500 nM.
On to `Cc1nc(-c2cc(-c3cc4c(c(S(C)(=O)=O)c3)C(=O)N([C@@H](C)C3CC3)C4)cnn2)[nH]c1C` [Example 8, (S)-2-(1-Cyclopropylethyl)-5-(6-(4,5-dimethyl-1H-imidazol-2-yl)pyridazin-4-yl)-7-(methylsulfonyl)isoindolin-1-one Trifluoroacetate Salt], for which the IC50 was less than 100 nM on PI3Kγ (p110γ) and greater than 2000 nM on PI3Kδ (p110δ/p85α).
Take `Cc1cc(-c2cc(-c3ccc4c(c3)CN([C@@H](C)C3CC3)C4=O)cnn2)[nH]n1` [Example 11, (S)-2-(1-Cyclopropylethyl)-5-(6-(3-methyl-1H-pyrazol-5-yl)pyridazin-4-yl)isoindolin-1-one Trifluoroacetate Salt]: the IC50 is 500 to 2000 nM at PI3Kγ (p110γ) and greater than 2000 nM at PI3Kδ (p110δ/p85α).
In the case of `Cc1nnc(-c2cc(-c3ccc4c(c3)CN([C@@H](C)C3CC3)C4=O)ccn2)[nH]1` [Example 13, (S)-2-(1-Cyclopropylethyl)-5-(2-(5-methyl-4H-1,2,4-triazol-3-yl)pyridin-4-yl)isoindolin-1-one], the results for the IC50 at PI3Kγ (p110γ) and on PI3Kδ (p110δ/p85α) were less than 100 nM and greater than 2000 nM, respectively.
Consider `Cc1nc(-c2cc(-c3cc4c(c(C(O)CO)c3)C(=O)N([C@@H](C)C3CC3)C4)cnn2)[nH]c1C` (stereo partly drawn) [Example 19, 2-((S)-1-Cyclopropylethyl)-7-(1,2-dihydroxyethyl)-5-(6-(4,5-dimethyl-1H-imidazol-2-yl)pyridazin-4-yl)isoindolin-1-one, Trifluoroacetate Salt], for which the IC50 is less than 100 nM at PI3Kγ (p110γ) and greater than 2000 nM at PI3Kδ (p110δ/p85α).
In the case of `Cc1nc(-c2cc(-c3cc4c(c(S(C)(=N)=O)c3)C(=O)N([C@@H](C)C3CC3)C4)ccn2)[nH]c1C` (stereo partly drawn) [Example 21, 2-((S)-1-Cyclopropylethyl)-5-(2-(4,5-dimethyl-1H-imidazol-2-yl)pyridin-4-yl)-7-(S-methylsulfonimidoyl)isoindolin-1-one], the IC50 in test [1] (serum starved THP-1 cells) fell in the range of 500 to 1000 nM.
As to `CN=S(C)(=O)c1cc(-c2ccnc(-c3nc(C)c(C)[nH]3)c2)cc2c1C(=O)N([C@@H](C)C1CC1)C2` (stereo partly drawn) [Example 24, 2-((S)-1-Cyclopropylethyl)-5-(2-(4,5-dimethyl-1H-imidazol-2-yl)pyridin-4-yl)-7-(N,S-dimethylsulfonimidoyl)isoindolin-1-one], the IC50 in test [1] (serum starved THP-1 cells) lay in the range of 100 to 500 nM.
